What all share (format): in vivo
The subject of one test is Lolium perenne (LOLPE). Description: Test 2 glasshouse assay (IF50 formulation, X-77), pre-emergence herbicidal activity. Conditions: 480 h, 250 g/ha, 20DAA, read-out: Percentage phytotoxicity LOLPE. The gist of the method:
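Plants in soil pots were sprayed 1 day (pre-emergence) or ~12 days (post-emergence) after sowing with IF50 formulation diluted in 0.2% v/v X-77. Cool species were grown at 20/16 °C day/night, 16 h light, 65% humidity. Visual % phytotoxicity was scored at 20DAA (pre) or 15DAA (post).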

Test [1] concerns Abutilon theophrasti (ABUTH). Description: Test 1 glasshouse assay, pre-emergence herbicidal activity. Conditions: 312 h, visual evaluation after 13 days, read-out: Percentage phytotoxicity ABUTH. In short, it runs like this:
(§1)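 Pre-emergence: test species sown in soil and sprayed one day after sowing with active ingredient in acetone/water (50:50) with 0.5% Tween 20. Grown at 24/16 °C day/night, 14 h light, 65% humidity; visual phytotoxicity scored after 13 days (0% no damage, 100% total damage).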

Test [2] has as its system Echinochloa crus-galli (ECHCG). Described as above. Conditions: 312 h, visual evaluation after 13 days, read-out: Percentage phytotoxicity ECHCG. The gist of the method:
as §1

Test [3] relates to Amaranthus retroflexus (AMARE). Described as above. Conditions: 312 h, visual evaluation after 13 days, read-out: Percentage phytotoxicity AMARE. In short, it runs like this:
as §1

Test [4] relates to Alopecurus myosuroides (ALOMY). The test is described as above. Conditions: 312 h, visual evaluation after 13 days, read-out: Percentage phytotoxicity ALOMY. The gist of the method:
as §1

The test system of test [5] is Digitaria sanguinalis (DIGSA). Description: Test 2 glasshouse assay (IF50 formulation, X-77), post-emergence herbicidal activity. The following applies: 360 h, 15 DAA, visual score, read-out: Post-emergence herbicidal activity (percentage phytotoxicity) DIGSA; for pest or weed control at 30 g/ha: application rate 30 g/ha; for pest or weed control at 250 g/ha: application rate 250 g/ha; for pest or weed control at 125 g/ha: application rate 125 g/ha. The gist of the method:
(§2)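 Glasshouse test: pots sown, grown one day (pre-emergence) or about 12 days (post-emergence) at 24/18 °C day/night for warm species, 16 h light, 65% humidity, then sprayed with IF50 in 0.2% v/v X-77. Visual % phytotoxicity scored 20 days (pre) or 15 days (post) after application.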

Test [6] relates to Panicum miliaceum (PANMI). The test is described as above. The following applies: 360 h, 15 DAA, visual score, read-out: Post-emergence herbicidal activity (percentage phytotoxicity) PANMI; for pest or weed control at 30 g/ha: application rate 30 g/ha; for pest or weed control at 250 g/ha: application rate 250 g/ha; for pest or weed control at 125 g/ha: application rate 125 g/ha. In short, it runs like this: as §2

Test [7] concerns Setaria faberi (SETFA). The description is as above. Conditions: 360 h, 15 DAA, visual score, read-out: Post-emergence herbicidal activity (percentage phytotoxicity) SETFA; for pest or weed control at 30 g/ha: application rate 30 g/ha; for pest or weed control at 250 g/ha: application rate 250 g/ha; for pest or weed control at 125 g/ha: application rate 125 g/ha. In short, it runs like this:
as §2

Test [8] concerns Echinochloa crus-galli (ECHCG). The description is as above. Conditions: 360 h, 15 DAA, visual score, read-out: Post-emergence herbicidal activity (percentage phytotoxicity) ECHCG; for pest or weed control at 30 g/ha: application rate 30 g/ha; for pest or weed control at 250 g/ha: application rate 250 g/ha; for pest or weed control at 125 g/ha: application rate 125 g/ha. In short, it runs like this:
as §2

In test [9] the test system is Sorghum vulgare Pers. (SORVU). The description is as above. Conditions: Sorghum bicolor, 360 h, 15 DAA, visual score, read-out: Post-emergence herbicidal activity (percentage phytotoxicity) SORVU; for pest or weed control at 30 g/ha: application rate 30 g/ha; for pest or weed control at 250 g/ha: application rate 250 g/ha; for pest or weed control at 125 g/ha: application rate 125 g/ha. The gist of the method: as §2

Test [10] deals with Brachiaria plantaginea (BRAPL). The description is as above. Conditions: Urochloa plantaginea, 360 h, 15 DAA, visual score, read-out: Post-emergence herbicidal activity (percentage phytotoxicity) BRAPL; for pest or weed control at 30 g/ha: application rate 30 g/ha; for pest or weed control at 250 g/ha: application rate 250 g/ha; for pest or weed control at 125 g/ha: application rate 125 g/ha. In short, it runs like this:
as §2

For test [11], the system named is Panicum miliaceum (PANMI). Description: Test 2 glasshouse assay (IF50 formulation, X-77), pre-emergence herbicidal activity. The following applies: 480 h, 250 g/ha, 20DAA, read-out: Percentage phytotoxicity PANMI. In short, it runs like this:
as §2

For test [12], the system named is Setaria faberi (SETFA). The test is described as above. The following applies: 480 h, 250 g/ha, 20DAA, read-out: Percentage phytotoxicity SETFA. The gist of the method: as §2
For test [13], the system named is Echinochloa crus-galli (ECHCG). Described as above. Conditions: 480 h, 250 g/ha, 20DAA, read-out: Percentage phytotoxicity ECHCG. The gist of the method: as §2
In test [14] the test system is Brachiaria plantaginea (BRAPL). Described as above. Conditions: Urochloa plantaginea, 480 h, 250 g/ha, 20DAA, read-out: Percentage phytotoxicity BRAPL. In short, it runs like this:
as §2

The values below come from patent publication US10375956B2, “Herbicidally active 2-(substituted-phenyl)-cyclopentane-1,3-dione compounds and derivatives thereof” (Syngenta Limited, priority 2013, dated 2019).

With `C#CCC1CC(=O)C(c2c(C)cc(-c3ncc(Cl)cc3F)cc2C)C1=O` (stereo not drawn) [Compound A3], the pest or weed control at 250 g/ha was 80% in the test on Lolium perenne (LOLPE); 20% in test [1]; 100% in [2]; 60% in test [3]; 100% in test [4]; 100% in [5]. The pest or weed control at 250 g/ha in test [6] is 100%; in the test on Setaria faberi (SETFA) [7], 100%; in [8], 100%; in test [9], 100%; in test [10] it was 100%; in [11] it was 80%. The results for the pest or weed control at 250 g/ha (in the test on Setaria faberi (SETFA) [12]; in test [13]; in [14]) were 80%, 80% and 90%, respectively. Moreover, the pest or weed control at 30 g/ha in [5] was found to be 100%; in test [6], 100%; with Setaria faberi (SETFA) [7], 100%; in test [8] it was 100%; in test [9] it was 100%; in test [10], 80%.
For the compound `C#CCC1CC(=O)C(c2c(F)cc(-c3ccc(F)c(F)c3)cc2OC)C1=O` (stereo not drawn) [Compound A22], the pest or weed control at 250 g/ha in the test with Lolium perenne (LOLPE) was 20%; in test [1] it was 0%; in test [2] it was 100%; in [3], 30%; in test [4] it was 80%; in test [11] it was 80%. Moreover, the pest or weed control at 250 g/ha was found to be 90% in the test on Setaria faberi (SETFA) [12], 70% in test [13] and 90% in test [14]. In addition, the pest or weed control at 30 g/ha amounted to 70% in test [5]; 60% in test [6]; 80% in the test with Setaria faberi (SETFA) [7]; 70% in [8]; 70% in test [9]; 90% in [10]. In addition, the pest or weed control at 125 g/ha (in test [5]; in test [6]; in the test with Setaria faberi (SETFA) [7]; in [8]; in test [9]; in test [10]) was 100% in each case.
`C#CCC1CC(=O)C(c2c(C)cc(-c3ccc(Cl)cn3)cc2C)C1=O` (stereo not drawn) [Compound A2]: the pest or weed control at 250 g/ha in the test on Lolium perenne (LOLPE) worked out at 80%; in test [1] it was 50%; in [2], 100%; in [3], 90%; in [4], 90%; in [5], 100%. Moreover, the pest or weed control at 250 g/ha (in [6]; with Setaria faberi (SETFA) [7]; in [8]; in test [9]; in test [10]; in [11]) was 100% throughout. Further, the pest or weed control at 250 g/ha worked out at 90% in the test on Setaria faberi (SETFA) [12], 80% in test [13] and 80% in [14]. The pest or weed control at 30 g/ha (in test [5]; in test [6]; in the test on Setaria faberi (SETFA) [7]; in test [8]; in test [9]; in test [10]) was 100% in each case.
Take `C#CCC1CC(=O)C(c2c(Cl)cc(-c3ccc(F)cc3F)cc2OC)C1=O` (stereo not drawn) [Compound A12]: the pest or weed control at 250 g/ha was determined as 100% in the test with Lolium perenne (LOLPE); 80% in test [1]; 100% in test [2]; 100% in test [3]; 90% in test [4]; 100% in [11]. The pest or weed control at 250 g/ha with Setaria faberi (SETFA) [12] is 100%; in [13], 80%; in test [14] it was 100%. Moreover, the pest or weed control at 30 g/ha in test [5] turned out to be 70%; in test [6], 70%; with Setaria faberi (SETFA) [7] it was 20%; in [8], 70%; in test [9] it was 90%; in test [10] it was 70%. Further, the pest or weed control at 125 g/ha (in test [5]; in test [6]; in the test with Setaria faberi (SETFA) [7]; in test [8]; in [9]; in [10]) was 100% in each case.
Consider `C#CCC1CC(=O)C(c2c(Cl)cc(-c3ccc(Cl)cc3)cc2OC)C1=O` (stereo not drawn) [Compound A11, 2-[2-chloro-4-(4-chlorophenyl)-6-methoxyphenyl]-4-prop-2-ynylcyclopentane-1,3-dione], for which the pest or weed control at 250 g/ha in the test on Lolium perenne (LOLPE) is 60%; in test [1], 40%; in test [2], 100%; in test [3] it was 80%; in test [4], 100%; in test [5] it was 100%. For the same compound, the pest or weed control at 250 g/ha in test [6] worked out at 100%; with Setaria faberi (SETFA) [7], 100%; in test [8], 100%; in test [9], 100%; in test [10] it was 100%; in test [11] it was 60%. Moreover, the figures for the pest or weed control at 250 g/ha (in the test on Setaria faberi (SETFA) [12]; in test [13]; in test [14]) were 90%, 70% and 100%, respectively. The pest or weed control at 30 g/ha in test [5] came out at 100%; in [6] it was 100%; in the test on Setaria faberi (SETFA) [7] it was 80%; in test [8], 100%; in [9] it was 100%; in test [10], 100%.
